Measured values: paper PMC8406801, “Naringenin Inhibits Platelet Activation and Arterial Thrombosis Through Inhibition of Phosphoinositide 3-Kinase and Cyclic Nucleotide Signaling” (Frontiers in Pharmacology, 2021)
“And” between values parts separate entries of the source, which are not always exact repeats. Equal values may be shown once. Read-outs that look alike come from different tables or passages of the source.

Tests used:
[1] = system: PRP (platelet-rich plasma); test: ADP (10 μmol/L)-induced aggregation of PRP in vitro; format: cell-based, rat; details: for Aggregation (%): raw data
Description: (§1) Washed rat platelets were prepared as described previously ([Gao et al., 2011]) with a minor modification. Briefly, rat blood was drawn from the abdominal aorta into the siliconized vacutainers containing 1:9 (v/v) 3.8% sodium citrate, supplemented with 100 ng/ml prostaglandin E1 (PGE1) and centrifuged at 300 × g for 6 min at room temperature. Platelet-rich plasma (PRP) was obtained, and after the addition of 100 ng/ml PGE1, platelets were pelleted at 900 × g for 10 min. Platelets were washed once in Tyrode’s buffer (12 mM NaHCO3, 138 mM NaCl, 5.5 mM glucose, 2.9 mM KCl, 2 mM MgCl2, 0.42 mM NaH2PO4, 10 mM HEPES, pH 7.4) containing 100 ng/ml PGE1, and finally resuspended in Tyrode’s buffer containing 0.02 U/mL apyrase to a final concentration of 4×10^8 cells/mL. Washed platelets were preincubated with vehicle (0.4% dimethyl sulfoxide) or various concentrations of naringenin in the presence of 2 mM CaCl2 for 5 min at 37°C, and then further stimulated by ADP (10 μM), thrombin (0.2 U/mL) or collagen (2 μg/ml). The maximum platelet aggregation rate was detected within 5 min with continuous stirring.
Platelet aggregation was induced by ADP using washed platelets and PRP. Washed platelets were preincubated with vehicle (containing 0.4% DMSO) or different doses (100, 200, 400, and 800 μM) of naringenin or naringin for 5 min before activation with ADP (10 μM) for 5 min. […] For example, naringenin, at doses of 100 and 800 μM, decreased ADP-induced platelet aggregation to 54.5 ± 6.2% and 6.3 ± 1.7%, respectively (n = 6; p < 0.001, control group platelet aggregation was taken as 100%) (Figure 1F). […] Because dietary flavonoids have been reported to bind plasma proteins and cause the lowering of inhibitory potency in PRP ([Wright et al., 2013]), the ability of naringenin and naringin on platelet function in PRP was investigated to compare their effects with washed platelets.
(§2) FIGURE 1 Effects of naringenin and naringin on platelet aggregation. Chemical structure of naringin (A) and naringenin (B). The effects of naringin (C) or naringenin (D) on PRP were measured following stimulation with 10 μmol/L ADP. Rat washed platelet aggregation performed with or without different concentrations of naringin (E) or naringenin (F) was recorded after stimulation with 10 μmol/L ADP. Similarly, Washed platelet aggregation performed with vehicle or various concentrations of naringenin was recorded after stimulation with 0.2 U/mL thrombin (G) or 2 μg/ml collagen (H). WP represents washed platelets. Data are expressed as means ± SD (n = 6), the level of aggregation obtained at 5 min with vehicle-treated samples (0 μM) was taken as 100%. *p < 0.05, **p < 0.01, ***p < 0.001 compared with the vehicle control group.

[2] = system: Akt Ser473 phosphorylation; test: Ex vivo immunoblotting of phospho-Akt (Ser473) in ADP-stimulated PRP of treated rats; parameters: species or system rat; details: for p-Akt Ser473 / t-Akt (Fold to Control) / p-Akt Ser473 / t-Akt (raw data): ex vivo, Figure 8C
Description: (§3) Male SD rats were randomly divided into 5 groups with 6 rats in each group. […] Sixty minutes after the last sample treatment, blood was drawn from the abdominal aorta of rats into the siliconized vacutainers containing 1:9 (v/v) 3.8% sodium citrate. The collected blood was centrifuged at 100 × g for 10 min at room temperature to obtain PRP. […] The platelet counts of PRP were adjusted to 4×10^8 cells/mL using PPP. PRP was incubated for 5 min at 37°C and then stimulated by ADP (5 μM). The maximum platelet aggregation rate was determined as mentioned above.
(§4) For in vitro platelet aggregation, aliquots of washed platelets were preincubated with vehicle or various concentrations of naringenin for 5 min and stimulated with ADP (10 μmol/L) under stirring at 37°C for 5 min. For ex vivo platelet aggregation, PRP was incubated at 37°C for 5 min and stimulated with ADP (5 μmol/L) under stirring at 37 °C. The platelet aggregation was terminated by adding ethylenediaminetetraacetic acid (EDTA; 10 mM). Total protein was prepared using RIPA lysis buffer and protein content was determined by bicinchoninic acid (BCA) protein assay kit. Equal amounts of platelet proteins (30 μg) were separated on 10% SDS polyacrylamide gel electrophoresis (SDS-PAGE) and then transferred to poly vinylidene difluoride (PVDF) membranes and subjected to western blot. Blots were blocked with TBS-Tween 20 containing 5% BSA and probed with primary antibodies diluted in blocking solution at 4°C overnight followed by incubation with the corresponding HRP secondary antibodies. The protein bands were visualized using enhanced chemiluminescence (ECL).
(§5) Blood was collected and PRP was obtained after the last treatment. Platelet aggregation was induced by ADP (5 μmol/L) (A). Data are expressed as means ± SD (n = 6). After ADP stimulation, platelet proteins were then extracted and analyzed by immunoblotting using PI3Kp110β antibody (B) and phospho-specific antibodies such as Akt^Ser473 (C), Akt^Thr308 (D) and ERK1/2^Thr202/Tyr204 (E). Total level of GAPDH was measured on each sample as a loading control. The blots shown are representative of three separate experiments. The relative protein expression levels were quantified by ImageJ 1.47v software. The level of relative protein expression obtained with vehicle control was taken as 1. R represents the level of relative protein expression in resting platelets. Data are expressed as means ± SD (n = 3). *p < 0.05, **p < 0.01, ***p < 0.001 compared with the vehicle control group (Con).
(§6) To further investigate the antiplatelet mechanisms of naringenin ex vivo, several signaling molecules such as PI3Kp110β, Akt and ERK were detected. After oral administration of naringenin (200, 400, and 800 mg/kg) to rats for 7 days, rat PRP was prepared and stimulated by ADP (5 μmol/L), and platelets were lysed to determine protein phosphorylation levels using western blot.

washed rat platelets = test: Collagen (2 μg/ml)-induced aggregation of washed platelets; format: cell-based; details: for Aggregation (%) / Aggregation % of control: washed platelets, single replicates; for Aggregation (%): raw data
Description: as §1, §2

ERK1/2 phosphorylation = test: Ex vivo immunoblotting of phospho-ERK1/2 in ADP-stimulated PRP of treated rats; parameters: species or system rat; details: for p-ERK1/2 / t-ERK (Fold to Control) / p-ERK1/2 / t-ERK (raw data): ex vivo, Figure 8E
Description: as §3, §4, §5, §6

[3] = rats, oral 200, 400, and 800 mg/kg for 7 days, ADP 5 μmol/L

## O=C1C[C@@H](c2ccc(O)cc2)Oc2cc(O)cc(O)c21 [Naringenin]
[1]; ADP-induced, 100 μM
  decrease of aggregation in PRP: 18%
[1]; PRP, ADP 10 μmol/L, compound 100 μM, single replicates
  Aggregation (%): 44.9% and 44.8% and 49.7% and 47.9% and 48.3%
[1]; PRP, ADP 10 μmol/L, compound 100 μM, single replicates, 100 µM
  Aggregation % of control: 78.3 % of control and 86.8 % of control and 83.7 % of control and 79.5 % of control and 84.4 % of control
[1]; PRP, ADP 10 μmol/L, compound 200 μM, single replicates
  Aggregation (%): 42.5% and 44.3% and 48.9% and 47.2% and 39.7%
[1]; PRP, ADP 10 μmol/L, compound 200 μM, single replicates, 200 µM
  Aggregation % of control: 77.4 % of control and 85.4 % of control and 82.4 % of control and 69.3 % of control and 74.1 % of control
[1]; PRP, ADP 10 μmol/L, compound 400 μM, single replicates
  Aggregation (%): 39.7% and 31.6% and 37.9% and 34.1% and 44.8%
[1]; PRP, ADP 10 μmol/L, compound 400 μM, single replicates, 400 µM
  Aggregation % of control: 66.9 % of control and 69.3 % of control and 55.2 % of control and 66.2 % of control and 59.6 % of control and 78.3 % of control
[1]; PRP, ADP 10 μmol/L, compound 800 μM, single replicates
  Aggregation (%): 30.9% and 33.6% and 36.0% and 28.9% and 28.6% and 38.4%
[1]; PRP, ADP 10 μmol/L, compound 800 μM, single replicates, 800 µM
  Aggregation % of control: 58.7 % of control and 62.9 % of control and 50.5 % of control and 50.0 % of control and 67.1 % of control
[1]; Rattus norvegicus, PRP, ADP 10 μmol/L, compound 100 μM, single replicates, read-out: Aggregation % of control
  activity at 100 µM: 78.4%
[1]; Rattus norvegicus, PRP, ADP 10 μmol/L, compound 200 μM, single replicates, read-out: Aggregation % of control
  activity at 200 µM: 74.2%
[1]; Rattus norvegicus, PRP, ADP 10 μmol/L, compound 800 μM, single replicates, read-out: Aggregation % of control
  activity at 800 µM: 54%
[2]; naringenin 200mg/kg
  p-Akt Ser473 / t-Akt (Fold to Control): 0.3581 and 0.2265 and 0.3338
  p-Akt Ser473 / t-Akt (raw data): 0.3980 and 0.2517 and 0.3710
[2]; naringenin 400mg/kg
  p-Akt Ser473 / t-Akt (Fold to Control): 0.1353 and 0.0873 and 0.1300
  p-Akt Ser473 / t-Akt (raw data): 0.1504 and 0.0970 and 0.1445
[2]; naringenin 800mg/kg
  p-Akt Ser473 / t-Akt (Fold to Control): 0.1415 and 0.0868 and 0.1240
  p-Akt Ser473 / t-Akt (raw data): 0.1573 and 0.0965 and 0.1378
[2]; [3]
  phosphorylation of Akt at Ser473 in rat PRP ex vivo: significantly suppressed
Washed rat platelets
  IC50: ~236 µM
Washed rat platelets; Rattus norvegicus, Platelet
  IC50: 236 ± 33.1 µM
Washed rat platelets; 100 μM
  Aggregation (%): 32.0% and 39.6% and 43.9% and 35.0% and 27.0% and 45.0%
  Aggregation % of control: 75.4 % of control and 93.4 % of control and 103.5 % of control and 82.5 % of control and 63.6 % of control and 106.1 % of control
Washed rat platelets; 200 μM
  Aggregation (%): 24.1% and 37.0% and 14.9% and 25.4% and 24.3% and 10.0%
  Aggregation % of control: 56.8 % of control and 87.2 % of control and 35.1 % of control and 59.9 % of control and 57.3 % of control and 23.6 % of control
Washed rat platelets; 400 μM
  Aggregation (%): 10.0% and 14.0% and 11.7% and 7.9% and 15.4% and 4.9%
  Aggregation % of control: 23.6 % of control and 33.0 % of control and 27.6 % of control and 18.6 % of control and 36.3 % of control and 11.6 % of control
Washed rat platelets; 800 μM
  Aggregation (%): 7.3% and 9.1% and 9.0% and 4.9% and 4.2% and 14.0%
  Aggregation % of control: 17.2 % of control and 21.5 % of control and 21.2 % of control and 11.6 % of control and 9.9 % of control and 33.0 % of control
ERK1/2 phosphorylation; naringenin 200mg/kg
  p-ERK1/2 / t-ERK (Fold to Control): 0.4913 and 0.9007 and 0.8159
  p-ERK1/2 / t-ERK (raw data): 0.4317 and 0.7915 and 0.7170
ERK1/2 phosphorylation; naringenin 800mg/kg
  p-ERK1/2 / t-ERK (Fold to Control): 0.4112 and 0.5367 and 0.7060
  p-ERK1/2 / t-ERK (raw data): 0.3613 and 0.4716 and 0.6204
ERK1/2 phosphorylation; [3]
  phosphorylation of ERK in rat PRP ex vivo: significantly suppressed
